Source: ChEMBL document CHEMBL4418493, “N-hydroxyformamide compounds and compositions comprising them for use as BMP1, TLL1 and/or TLL2 inhibitors” (2018)

Legend:
[1] = molecular target: T1, Bone morphogenetic protein 1 (Homo sapiens, UniProt P13497); test: Inhibition of C-terminal FLAG-6x-His epitope tagged and N-terminal human RAGE signal sequence tagged human BMP1 (121 to 721 amino acids) expressed in CHO-E1a cells pre-incubated for 10 mins before promyostatin peptide substrate addition and measured after 60 mins using 0.5 nM BMP1 by FRET based assay; format: cell-based
T1 sequence (P13497 whole entry): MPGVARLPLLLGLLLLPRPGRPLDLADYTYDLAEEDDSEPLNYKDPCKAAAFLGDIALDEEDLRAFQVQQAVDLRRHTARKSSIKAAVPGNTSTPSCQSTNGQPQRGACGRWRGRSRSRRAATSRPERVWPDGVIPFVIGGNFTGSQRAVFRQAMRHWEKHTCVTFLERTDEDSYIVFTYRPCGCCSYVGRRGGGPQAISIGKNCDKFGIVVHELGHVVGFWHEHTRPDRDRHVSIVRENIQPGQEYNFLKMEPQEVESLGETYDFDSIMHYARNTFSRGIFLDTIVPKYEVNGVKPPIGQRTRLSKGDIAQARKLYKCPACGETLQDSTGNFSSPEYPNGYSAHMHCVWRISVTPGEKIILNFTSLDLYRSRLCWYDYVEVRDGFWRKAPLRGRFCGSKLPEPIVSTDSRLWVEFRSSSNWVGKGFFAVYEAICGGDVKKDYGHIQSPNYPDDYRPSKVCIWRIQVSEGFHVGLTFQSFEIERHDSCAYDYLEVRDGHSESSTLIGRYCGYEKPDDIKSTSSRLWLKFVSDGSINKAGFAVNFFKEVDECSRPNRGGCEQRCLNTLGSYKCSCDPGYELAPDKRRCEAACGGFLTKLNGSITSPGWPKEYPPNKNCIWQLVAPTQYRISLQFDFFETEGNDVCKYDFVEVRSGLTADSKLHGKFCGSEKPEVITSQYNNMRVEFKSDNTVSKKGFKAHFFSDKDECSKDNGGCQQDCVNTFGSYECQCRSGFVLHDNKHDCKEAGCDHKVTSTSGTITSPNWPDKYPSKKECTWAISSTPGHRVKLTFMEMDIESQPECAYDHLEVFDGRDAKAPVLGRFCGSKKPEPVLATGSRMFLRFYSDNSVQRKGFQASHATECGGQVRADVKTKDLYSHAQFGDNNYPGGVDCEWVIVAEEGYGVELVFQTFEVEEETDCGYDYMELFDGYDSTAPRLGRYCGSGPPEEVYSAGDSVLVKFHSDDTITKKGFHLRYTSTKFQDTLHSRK

[2] = molecular target: Tolloid-like protein 1 (Homo sapiens, UniProt O43897, I156V/N221S/V284A); test: Inhibition of recombinant human TLL1 I156V/N221S/V284A mutant expressed in CHOE1A cells pre-incubated for 10 mins before promyostatin peptide substrate addition and measured after 60 mins by FRET based assay; format: cell-based
[3] = molecular target: T2, Tolloid-like protein 2 (Homo sapiens, UniProt Q9Y6L7); test: Inhibition of C-terminal Avi-6x-His epitope tagged and N-terminal human RAGE signal sequence tagged recombinant human TLL2 (26 to 1015 amino acids) expressed in CHOE1A cells incubated for 60 mins with promyostatin peptide substrate by FRET based assay; format: cell-based
T2 sequence (Q9Y6L7 whole entry): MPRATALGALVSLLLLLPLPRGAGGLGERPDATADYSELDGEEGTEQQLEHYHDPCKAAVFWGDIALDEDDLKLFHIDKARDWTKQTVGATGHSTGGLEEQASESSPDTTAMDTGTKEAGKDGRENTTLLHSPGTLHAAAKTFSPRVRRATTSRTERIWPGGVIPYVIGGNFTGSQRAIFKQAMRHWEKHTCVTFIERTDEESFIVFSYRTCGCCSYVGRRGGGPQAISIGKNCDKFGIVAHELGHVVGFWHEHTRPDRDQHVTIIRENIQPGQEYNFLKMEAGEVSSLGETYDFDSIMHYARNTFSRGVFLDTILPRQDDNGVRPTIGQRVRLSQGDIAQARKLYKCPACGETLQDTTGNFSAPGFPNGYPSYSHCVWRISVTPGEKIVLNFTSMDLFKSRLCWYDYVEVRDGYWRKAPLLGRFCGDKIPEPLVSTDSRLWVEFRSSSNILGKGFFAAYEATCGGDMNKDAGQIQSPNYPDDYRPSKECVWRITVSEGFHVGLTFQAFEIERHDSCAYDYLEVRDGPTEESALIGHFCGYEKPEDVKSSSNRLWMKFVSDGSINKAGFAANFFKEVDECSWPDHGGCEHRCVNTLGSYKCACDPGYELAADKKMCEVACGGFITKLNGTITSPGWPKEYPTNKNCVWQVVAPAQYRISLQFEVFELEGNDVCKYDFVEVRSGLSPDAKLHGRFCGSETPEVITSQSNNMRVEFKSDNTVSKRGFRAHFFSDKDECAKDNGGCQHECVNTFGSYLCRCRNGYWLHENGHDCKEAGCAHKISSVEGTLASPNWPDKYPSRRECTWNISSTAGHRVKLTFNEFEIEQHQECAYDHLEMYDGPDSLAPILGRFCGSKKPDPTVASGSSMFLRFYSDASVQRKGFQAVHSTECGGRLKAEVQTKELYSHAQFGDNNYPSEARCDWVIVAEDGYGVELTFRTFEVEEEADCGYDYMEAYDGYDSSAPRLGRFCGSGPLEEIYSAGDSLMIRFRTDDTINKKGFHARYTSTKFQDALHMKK

[4] = Reduction in PICP levels in human cardiac fibroblasts incubated for 24 to 48 hrs by ELISA; format: functional
[5] = Reduction in mature collagen deposition levels in human cardiac fibroblasts incubated for 24 to 48 hrs by immunostaining based assay; format: functional
[6] = Drug metabolism in heparinized pooled human plasma at pH 7.5 assessed as formation of ((2-ethoxy-4-(5-((((R)-2-((R)-1-(N-hydroxyformamido)propyl)heptanamido)methyl)carbamoyl)furan-2-yl)benzamido)methyl)phosphonic acid at 100 to 2000 ng/ml incubated up to 4 or 24 hrs by LC-MS/MS analysis; format: ADME, cell-free; conditions: pH 7.5, 24 h
[7] = Drug metabolism in heparinized pooled human plasma at pH 7.5 assessed as formation of N-(((R)-2-((R)-1-(N-hydroxyformamido)propyl)heptanamido)methyl)-5-phenylfuran-2-carboxamide at 100 to 2000 ng/ml incubated up to 4 or 24 hrs by LC-MS/MS analysis; format: ADME, cell-free; conditions: pH 7.5, 24 h
[8] = Drug metabolism in heparinized pooled human plasma at pH 7.5 assessed as conversion to active compound at 100 to 2000 ng/ml incubated for 4 by LC-MS/MS analysis; format: ADME, cell-free
[9] = Stability in pH 7.96 assessed as compound purity level at 1 mg/ml heated to 40 degC and measured at 200 hrs by LC/MS analsysis; format: physicochemical; conditions: buffer, read-out: Stability
[10] = Drug metabolism in heparinized pooled human plasma at pH 7.5 assessed as formation of 4-(5-((((R)-2-((R)-1-(N-hydroxyformamido) propyl)heptanamido)methyl)carbamoyl)furan-2-yl)benzoic acid at 100 to 2000 ng/ml incubated up to 4 or 24 hrs by LC-MS/MS analysis; format: ADME, cell-free; conditions: pH 7.5, 24 h
[11] = Drug metabolism in heparinized pooled human plasma at pH 7.5 assessed as formation of (3-ethoxy-5-(5-((((R)-2-((R)-1-(N-hydroxyformamido)propyl)heptanamido)methyl)carbamoyl) furan-2-yl)phenyl)phosphonic acid at 100 to 2000 ng/ml incubated up to 4 or 24 hrs by LC-MS/MS analysis; format: ADME, cell-free; conditions: pH 7.5, 24 h

Chain of Tolloid-like protein 1 (O43897 148-1013 I156V/N221S/V284A limits assumed): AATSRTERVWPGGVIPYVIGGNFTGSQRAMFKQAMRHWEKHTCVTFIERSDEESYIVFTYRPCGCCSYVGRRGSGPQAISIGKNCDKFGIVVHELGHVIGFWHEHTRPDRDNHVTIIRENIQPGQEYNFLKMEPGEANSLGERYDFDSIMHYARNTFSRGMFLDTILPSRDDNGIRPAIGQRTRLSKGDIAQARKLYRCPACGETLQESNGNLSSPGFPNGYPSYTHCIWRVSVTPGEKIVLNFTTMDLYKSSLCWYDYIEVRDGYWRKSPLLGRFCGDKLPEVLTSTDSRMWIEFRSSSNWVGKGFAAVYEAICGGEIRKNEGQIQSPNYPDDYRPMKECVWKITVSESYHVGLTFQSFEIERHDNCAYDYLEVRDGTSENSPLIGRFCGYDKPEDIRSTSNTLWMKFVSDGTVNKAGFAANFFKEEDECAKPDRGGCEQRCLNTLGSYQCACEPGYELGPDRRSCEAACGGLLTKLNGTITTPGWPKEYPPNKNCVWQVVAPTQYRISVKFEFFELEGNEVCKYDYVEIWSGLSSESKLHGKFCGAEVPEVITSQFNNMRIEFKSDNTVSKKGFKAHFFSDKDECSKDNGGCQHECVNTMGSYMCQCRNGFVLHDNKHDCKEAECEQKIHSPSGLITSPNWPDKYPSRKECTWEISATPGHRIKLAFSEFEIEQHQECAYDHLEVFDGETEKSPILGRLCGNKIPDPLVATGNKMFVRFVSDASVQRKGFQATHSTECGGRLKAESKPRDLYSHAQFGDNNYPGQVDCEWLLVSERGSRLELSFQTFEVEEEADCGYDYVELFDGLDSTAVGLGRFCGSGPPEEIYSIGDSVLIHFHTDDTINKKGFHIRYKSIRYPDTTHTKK

Row | Structure (SMILES) | IC50 [1] | IC50 [2] | IC50 [3] | IC50 [4] | further results
1 | CCCCC[C@@H](C(=O)NCNC(=O)c1ccc(-c2cc(OCC)cc(P(=O)(O)OCOC(=O)OC(C)C)c2)o1)[C@@H](CC)N(O)C=O | < 316 nM | < 251 nM | < 398 nM | < 398 nM | –
2 | CCCCC[C@@H](C(=O)NCNC(=O)c1ccc(-c2ccc(C(=O)NCP(=O)(O)O)c(OCC)c2)o1)[C@@H](CC)N(C=O)OC(=O)c1ccc(OC)cc1 | – | – | – | < 3980 nM | IC50 [5]: < 1000 nM; Drug metabolism [6]: Metabolite_Detected
3 | CCCCC[C@@H](C(=O)NCNC(=O)c1ccc(-c2ccc(C(=O)NCP(=O)(O)O)c(OCC)c2)o1)[C@@H](CC)N(C=O)OC(=O)c1ccc(CN2CCOCC2)cc1C.O=C(O)C(F)(F)F | – | – | – | < 3980 nM | Drug metabolism [6]: Metabolite_Detected
4 | CCCCC[C@@H](C(=O)NCNC(=O)c1ccc(-c2ccc(C(=O)N[C@@H](CC(=O)O)C(=O)OC(C)(C)C)c(OCC)c2)o1)[C@@H](CC)N(O)C=O | 126 to 316 nM | 251 to 398 nM | 398 to 794 nM | 398 to 3980 nM | –
5 | CCCCC[C@@H](C(=O)NCNC(=O)c1ccc(-c2ccccc2)o1)[C@@H](CC)N(C=O)OCOP(=O)(O)O.N.N | – | – | – | – | Drug metabolism [7]: Metabolite_Detected
6 | CCCCC[C@@H](C(=O)NCNC(=O)c1ccc(-c2ccc(C(=O)N[C@@H](CC(=O)O)C(=O)OCC)c(OCC)c2)o1)[C@@H](CC)N(O)C=O | 126 to 316 nM | 251 to 398 nM | 398 to 794 nM | 398 to 3980 nM | IC50 [5]: < 1000 nM
7 | CCCCC[C@@H](C(=O)NCNC(=O)c1ccc(-c2ccccc2)o1)[C@@H](CC)N(C=O)OC(=O)C(C)(C)C | – | – | – | < 3980 nM | Drug metabolism [7]: Metabolite_Detected; Drug metabolism [8]: > 10%; remaining at 200 h, 1 mg/ml [9]: < 80%
8 | CCCCC[C@@H](C(=O)NCNC(=O)c1ccc(-c2ccc(C(=O)OCC(=O)N(C)C)cc2)o1)[C@@H](CC)N(O)C=O | – | – | – | < 3980 nM | Drug metabolism [10]: Metabolite_Detected
9 | CCCCC[C@@H](C(=O)NCNC(=O)c1ccc(-c2ccc(C(=O)N[C@@H](CC(=O)OCC)C(=O)OCC)c(OCC)c2)o1)[C@@H](CC)N(O)C=O | 126 to 316 nM | 251 to 398 nM | 398 to 794 nM | 398 to 3980 nM | –
10 | CCCCC[C@@H](C(=O)NCNC(=O)c1ccc(-c2ccccc2)o1)[C@@H](CC)N(C=O)OC(=O)c1ccccc1 | – | – | – | < 3980 nM | Drug metabolism [7]: Metabolite_Detected; Drug metabolism [8]: > 10%; remaining at 200 h, 1 mg/ml [9]: < 80%
11 | CCCCC[C@@H](C(=O)NCNC(=O)c1ccc(-c2ccc(C(=O)OCCc3ccccc3)cc2)o1)[C@@H](CC)N(O)C=O | – | – | – | < 3980 nM | Drug metabolism [10]: Metabolite_Detected
12 | CCCCC[C@@H](C(=O)NCNC(=O)c1ccc(-c2ccc(C(=O)OCCN3CCOCC3)cc2)o1)[C@@H](CC)N(O)C=O | – | – | – | < 3980 nM | Drug metabolism [10]: Metabolite_Detected
13 | CCCCC[C@@H](C(=O)NCNC(=O)c1ccc(-c2cc(OCC)cc(P(=O)(O)Oc3ccccc3)c2)o1)[C@@H](CC)N(O)C=O | < 316 nM | < 251 nM | < 398 nM | < 398 nM | –
14 | CCCCC[C@@H](C(=O)NCNC(=O)c1ccc(-c2ccc(C(=O)N[C@@H](CC(=O)OC(C)(C)C)C(=O)OC(C)(C)C)c(OCC)c2)o1)[C@@H](CC)N(O)C=O | 126 to 316 nM | 251 to 398 nM | 398 to 794 nM | 398 to 3980 nM | IC50 [5]: < 1000 nM
15 | CCCCC[C@@H](C(=O)NCNC(=O)c1ccc(-c2ccc(C(=O)NCP(=O)(O)O)c(OCC)c2)o1)[C@@H](CC)N(C=O)OC(=O)c1ccc(OC)cc1C | – | – | – | < 3980 nM | Drug metabolism [6]: Metabolite_Detected
16 | CCCCC[C@@H](C(=O)NCNC(=O)c1ccc(-c2ccc(C(=O)NCP(=O)(O)O)c(OCC)c2)o1)[C@@H](CC)N(C=O)OC(=O)c1ccccc1 | – | – | – | < 3980 nM | Drug metabolism [6]: Metabolite_Detected
17 | CCCCC[C@@H](C(=O)NCNC(=O)c1ccc(-c2ccc(C(=O)N[C@@H](CC(=O)O)C(=O)OCOC(=O)c3ccccc3)c(OCC)c2)o1)[C@@H](CC)N(O)C=O | < 316 nM | < 251 nM | < 398 nM | < 398 nM | –
18 | CCCCC[C@@H](C(=O)NCNC(=O)c1ccc(-c2ccccc2)o1)[C@@H](CC)N(C=O)OC(=O)OC | – | – | – | < 3980 nM | Drug metabolism [7]: Metabolite_Detected; Drug metabolism [8]: > 10%; remaining at 200 h, 1 mg/ml [9]: < 80%
19 | CCCCC[C@@H](C(=O)NCNC(=O)c1ccc(-c2ccc(C(=O)O)cc2)o1)[C@@H](CC)N(C=O)OC(=O)c1ccccc1 | – | – | – | – | Drug metabolism [10]: Metabolite_Detected
20 | CCCCC[C@@H](C(=O)NCNC(=O)c1ccc(-c2ccc(C(=O)N[C@@H](CC(=O)OC)C(=O)OC)c(OCC(=O)OC)c2)o1)[C@@H](CC)N(O)C=O | 126 to 316 nM | 251 to 398 nM | 398 to 794 nM | 398 to 3980 nM | remaining at 200 h, 1 mg/ml [9]: < 80%
21 | CCCCC[C@@H](C(=O)NCNC(=O)c1ccc(-c2ccccc2)o1)[C@@H](CC)N(C=O)OC(=O)Cc1ccccc1 | – | – | – | < 3980 nM | Drug metabolism [7]: Metabolite_Detected; Drug metabolism [8]: > 10%; remaining at 200 h, 1 mg/ml [9]: < 80%
22 | CCCCC[C@@H](C(=O)NCNC(=O)c1ccc(-c2ccccc2)o1)[C@@H](CC)N(C=O)OC(=O)OC(C)(C)C | – | – | – | < 3980 nM | IC50 [5]: < 1000 nM; Drug metabolism [7]: Metabolite_Detected; Drug metabolism [8]: > 10%; remaining at 200 h, 1 mg/ml [9]: < 80%
23 | CCCCC[C@@H](C(=O)NCNC(=O)c1ccc(-c2cc(OCC)cc(P(=O)(OCOC(C)=O)OCOC(C)=O)c2)o1)[C@@H](CC)N(O)C=O | 126 to 316 nM | 251 to 398 nM | 398 to 794 nM | 398 to 3980 nM | Drug metabolism [11]: Metabolite_Detected
